Measurements: US6359142B1 (priority 1998, dated 2002)

Key:
Phytophthora infestans = format: in vivo; settings: tomato, protective, application rate 50 g/ha, evaluation 3 days after inoculation; 0% = control, 100% = no infection

CCc1c(C#N)oc(=O)n1S(=O)(=O)c1c(C)noc1C [Example 1, 5-cyano4-ethyl-3-(3,5-dimethyl-isoxazole-4-sulphonyl)-3H-[1,3]-oxazol-2-one]
melting point: 117 to 122 °C | Efficacy in % (Phytophthora infestans): 94% | logP (log p): 2.87

CCc1[nH]c(=O)oc1C#N [5-cycano-4-ethyl-3H-[1,3]-oxazol-2-one]
logP (log p): 0.88
